pIC50: −log10 of the molar value. Read-outs that look alike come from different tables or passages of the source.
Experiments:
TLR7/8 [1] = experiment: TLR7/8 Inhibition Assay IC50 in human PBMC's, cytokine release after CL075 stimulation (Luminex); assay type: cell-based; conditions: human PBMC's from one donor, CL075 2 μg/mL, 24 hours, eight concentrations 0.01-100 μM
Experimental: (§1) Cryopreserved human PBMC's were drip-thawed. Cells were diluted to the appropriate density (1×10^5 per well) and seeded into 96-well polypropylene plates with 150 μL per well of culture medium (RPMI 1640, 10% heat-inactivated FBS, 1% penicillin/streptomycin, 2 mM L-glutamine) for compound test wells.
Consequently, the final DMSO vehicle concentration in the assay was from 1 to 0.5%.
Than plates were centrifuged at 200×g for 10 minutes. […] Cytokine levels in each sample were determined using Luminex methodology, per the manufacturer's protocol.
The interpolated data were then normalized to the vehicle or unstimulated control.
Outlier calculation was performed using the Grubbs maximum normed residual test.
Eight test compounds were evaluated for their ability to inhibit the TLR7/8 in PBMC's from one human donor following incubation of 24 hours.

TLR7/8 [2] = conditions: reference compound 100 nM, CL075 2 μg/mL, human PBMC's, 24 hours
Experimental: Namely, in the present experiment their ability was evaluated to inhibit TLR7/8 in human PBMC's, as measured by the release of specific cytokines. The following cytokines were measured for a complete cytokine response profile (no dilution of samples): IL-1β, IL-6, IL-12p40, TNFα and IFNα.
Levels of each cytokine induction were interpolated from standard curves using a 5-parameter non-linear regression analysis, where y=(A+((B−A)/(1+(((B−E)/(E−A))*((x/C)^D))))). The interpolated data were then normalized to the vehicle control. Percent of control (PoC) was also calculated using the formula, PoC=(test sample/positive vehicle control)×100.
as §1, with “Fetal Bovine Serum (FBS),” for “FBS,”, “wells. For the control wells, cells (1×10^5 per well) were plated in 150 μL per well of culture medium.” for “wells.”
Cells were incubated at 37° C., 5% CO2 for 1 hour prior to the addition of test compounds or controls.
Test compounds were solubilized in DMSO to make 20× stock solutions, then diluted further with cell culture medium.
Test compounds were added to the PBMC's in volumes of 10 μL and incubated for 1 hour at 37° C., 5% CO2. Compounds were tested in duplicates at final assay concentrations of 10 μM.
Plates were incubated at 37° C., 5% CO2 for 24 hours. Plates were centrifuged at 200×g for 10 minutes. Cell culture supernatants were collected and stored at −80° C. until needed for analysis.
Harvested cell culture supernatants were measured for IL-1β, IL-6, IL-12p40, TNFα and IFNα release to assess dual TLR7/8 inhibition.

[3] = read-out: IC50 levels for test compounds, IFNα
[4] = read-out: IC50 levels for test compounds, IL-1β
[5] = read-out: IC50 levels for test compounds, L-6
[6] = read-out: IC50 levels for test compounds, L-12p40
[7] = read-out: IC50 levels for test compounds, TNFα

| Compound | pIC50 (TLR7/8 [1]; [3]) | pIC50 (TLR7/8 [1]; [4]) | pIC50 (TLR7/8 [1]; [5]) | pIC50 (TLR7/8 [1]; [6]) | pIC50 (TLR7/8 [1]; [7]) | TLR7/8 Inhibition, IFNα (POC %) (TLR7/8 [2]) | TLR7/8 Inhibition, IL-1β (POC %) (TLR7/8 [2]) | TLR7/8 Inhibition, IL-6 (POC %) (TLR7/8 [2]) | TLR7/8 Inhibition, IL-12p40 (POC %) (TLR7/8 [2]) | TLR7/8 Inhibition, TNFα (POC %) (TLR7/8 [2]) |
| --- | --- | --- | --- | --- | --- | --- | --- | --- | --- | --- |
| COc1ccc2c(c1)CCN(CCCNC(=O)C1CCN(c3ccc(C#N)cc3)CC1)C2 [Compound 26] | ≥ 5.00 | < 4.70 | < 4.70 | 4.70 to 5.00 | ≥ 5.00 |  |  |  |  |  |
| C[C@@H]1C[C@H]2[C@@H]3CCC4=CC(=O)C=C[C@]4(C)[C@@]3(F)[C@@H](O)C[C@]2(C)[C@@]1(O)C(=O)CO [Dexamethasone, dexamethasone] |  |  |  |  |  | 26.1% | 26.8% | 34.7% | 34.2% | 95.2% |

More lines, main results first:

| pIC50 (TLR7/8 [1]; [3]) | pIC50 (TLR7/8 [1]; [4]) | pIC50 (TLR7/8 [1]; [5]) | pIC50 (TLR7/8 [1]; [6]) | pIC50 (TLR7/8 [1]; [7]) | Compound | TLR7/8 Inhibition, IFNα (POC %) (TLR7/8 [2]) | TLR7/8 Inhibition, IL-1β (POC %) (TLR7/8 [2]) | TLR7/8 Inhibition, IL-6 (POC %) (TLR7/8 [2]) | TLR7/8 Inhibition, IL-12p40 (POC %) (TLR7/8 [2]) | TLR7/8 Inhibition, TNFα (POC %) (TLR7/8 [2]) |
| --- | --- | --- | --- | --- | --- | --- | --- | --- | --- | --- |
| ≥ 5.00 | < 4.70 | < 4.70 | < 4.70 | < 4.70 | COc1ccc2c(c1)CCN(CCNC(=O)C1CCN(c3ccc(C(F)(F)F)cn3)CC1)C2 [Compound 22, N-(2-(6-methoxy-3,4-dihydroisoquinolin-2(19)-yl)ethyl)-1-(5-(trifluoromethyl)pyridin-2-yl)piperidine-4-carboxamide] |  |  |  |  |  |
| ≥ 5.00 | < 4.70 | < 4.70 | 4.70 to 5.00 | < 4.70 | COc1ccc2c(c1)CCN(CCNC(=O)C1CCCN(c3ccc(C#N)cc3)C1)C2 (stereo not drawn) [Compound 24] |  |  |  |  |  |
| ≥ 5.00 | < 4.70 | ≥ 5.00 | 4.70 to 5.00 | < 4.70 | COc1ccc2c(c1)CCN(CCNC(=O)C1CCCN(c3ccc(C#N)cc3F)C1)C2 (stereo not drawn) [Compound 25] |  |  |  |  |  |
| < 4.70 | ≥ 5.00 | < 4.70 | 4.70 to 5.00 | < 4.70 | N#Cc1ccc(N2CCCC(C(=O)NCCN3CCc4ccccc43)C2)c(F)c1 (stereo not drawn) [Compound 15] |  |  |  |  |  |
